Measured values from PMC3242598, “Phase I study of BIBF 1120 with docetaxel and prednisone in metastatic chemo-naive hormone-refractory prostate cancer patients” (British Journal of Cancer, 2011).
Like-named read-outs stand apart in the source and are kept apart here.

Legend:
[1] = Plasma pharmacokinetics of docetaxel (HPLC-MS/MS); format: in vivo; conditions: human, docetaxel 75 mg m^−2 IV + BIBF 1120 250 mg BID; for half-life: read-out: t1/2, gMean (gCV%) (converted); for Tmax / AUC(0-inf) / Cmax: iv; for Tmax: read-out: tmax, median and range; for AUC(0-inf): read-out: AUC0−∞, gMean (gCV%); for Cmax: read-out: Cmax, gMean (gCV%)
Experimental: Peripheral blood was collected on days 1, 2, 3, 8, and 15 of TCs 1 and 2, and on days 2 and 15 of TCs 3–6 to perform the PK/pharmacodynamic (PD) analysis. Plasma concentrations of BIBF 1120 were determined after the first dose over the time interval 0–24 h on day 2 of TCs 1 and 2 to investigate single-dose PK characteristics of BIBF 1120 on the day after administration of single doses of docetaxel. Levels of BIBF 1120 were also determined on days 8 and 15 of TCs 1 and 2 to investigate steady-state levels.
Plasma concentrations of BIBF 1120 and docetaxel were analysed by a validated method using high-performance liquid chromatography coupled with tandem mass spectrometry (HPLC-MS/MS) in the Department of Drug Metabolism and Pharmacokinetics (Boehringer Ingelheim Pharma GmbH & Co KG, Biberach, Germany). The assay comprises sample clean-up by automated solid-phase extraction in a 96-well plate format. Chromatography was achieved on an analytical C18 reversed phase HPLC column with gradient elution. The substance was detected and quantified by HPLC-MS/MS using electrospray ionisation in the positive ion mode. Docetaxel was analysed by HPLC-MS/MS using paclitaxel as an internal standard. The assay comprises sample clean-up by liquid–liquid extraction and chromatography on an analytical C18 reversed phase HPLC column with isocratic elution. […] The lower limit of quantification for BIBF 1120 and metabolites was 0.5 ng ml^−1 plasma, using a plasma volume of 200 μl. For docetaxel, the lower limit was 2.5 ng ml^−1 plasma, using a plasma volume of 100 μl.
The calculated parameters were plasmatic peak concentrations following the first dose (Cmax), half-life time (t1/2), area under the plasma concentration–time curve (AUCt), apparent clearance after oral administration, and apparent volume of distribution during the terminal phase.

HRPC = conditions: cited from earlier work

half-life ([1]; treatment cycle 2 (n=12)) [h]	Tmax ([1]; treatment cycle 1 (n=12)) [h]	Tmax ([1]; treatment cycle 2 (n=12)) [h]	half-life ([1]; male, treatment cycle 1 (n=12)) [h]	AUC(0-inf) ([1]; male, treatment cycle 1 (n=12)) [ng·h/mL]	Cmax ([1]; male, treatment cycle 1 (n=12)) [ng/mL]	AUC(0-inf) ([1]; male, treatment cycle 2 (n=12)) [ng·h/mL]	Cmax ([1]; male, treatment cycle 2 (n=12)) [ng/mL]	SMILES	PSA responses (HRPC; docetaxel monotherapy or with estramustine, phase III, first-line metastatic HRPC, ref Petrylak et al, 2004, Tannock et al)	Median survival (HRPC; docetaxel with corticosteroid in HRPC, ref Petrylak et al, 2004, Tannock et al, Berthold et al, 2008) [months]	PSA response rates (HRPC; HRPC patients, ref Chi et al, 2008, Dror Michaelson et al, 2009, Sonpavde et al, 2010)
19.4	1.02	1.01	20.2	1860	1510	2460	1980	CC(=O)O[C@@]12CO[C@@H]1C[C@H](O)[C@@]1(C)C(=O)[C@H](O)C3=C(C)[C@@H](OC(=O)[C@H](O)[C@@H](NC(=O)OC(C)(C)C)c4ccccc4)C[C@@](O)([C@@H](OC(=O)c4ccccc4)[C@H]21)C3(C)C [docetaxel]	45–50%	< 20	
								CCN(CC)CCNC(=O)c1c(C)[nH]c(/C=C2\C(=O)Nc3ccc(F)cc32)c1C [sunitinib]			3.6–12.1%
